Reference: ChEMBL document CHEMBL4507268 (2021)

Tests used:
[1] = target: Histamine H4 receptor (Homo sapiens) (UniProt Q9H3N8); conditions: Compound concentration 10.0 uM
[2] = target: Mitogen-activated protein kinase kinase kinase 13 (Homo sapiens) (UniProt O43283); conditions: Compound concentration 1000.0 nM
[3] = target: Homeodomain-interacting protein kinase 1 (Homo sapiens) (UniProt Q86Z02); conditions: Compound concentration 1000.0 nM
[4] = target: Serine/threonine-protein kinase ULK1 (Homo sapiens) (UniProt O75385); conditions: Compound concentration 1000.0 nM
[5] = target: Vascular endothelial growth factor receptor 3 (Homo sapiens) (UniProt P35916); conditions: Compound concentration 1000.0 nM
Chain of Vascular endothelial growth factor receptor 3 (Homo sapiens) (P35916 whole entry): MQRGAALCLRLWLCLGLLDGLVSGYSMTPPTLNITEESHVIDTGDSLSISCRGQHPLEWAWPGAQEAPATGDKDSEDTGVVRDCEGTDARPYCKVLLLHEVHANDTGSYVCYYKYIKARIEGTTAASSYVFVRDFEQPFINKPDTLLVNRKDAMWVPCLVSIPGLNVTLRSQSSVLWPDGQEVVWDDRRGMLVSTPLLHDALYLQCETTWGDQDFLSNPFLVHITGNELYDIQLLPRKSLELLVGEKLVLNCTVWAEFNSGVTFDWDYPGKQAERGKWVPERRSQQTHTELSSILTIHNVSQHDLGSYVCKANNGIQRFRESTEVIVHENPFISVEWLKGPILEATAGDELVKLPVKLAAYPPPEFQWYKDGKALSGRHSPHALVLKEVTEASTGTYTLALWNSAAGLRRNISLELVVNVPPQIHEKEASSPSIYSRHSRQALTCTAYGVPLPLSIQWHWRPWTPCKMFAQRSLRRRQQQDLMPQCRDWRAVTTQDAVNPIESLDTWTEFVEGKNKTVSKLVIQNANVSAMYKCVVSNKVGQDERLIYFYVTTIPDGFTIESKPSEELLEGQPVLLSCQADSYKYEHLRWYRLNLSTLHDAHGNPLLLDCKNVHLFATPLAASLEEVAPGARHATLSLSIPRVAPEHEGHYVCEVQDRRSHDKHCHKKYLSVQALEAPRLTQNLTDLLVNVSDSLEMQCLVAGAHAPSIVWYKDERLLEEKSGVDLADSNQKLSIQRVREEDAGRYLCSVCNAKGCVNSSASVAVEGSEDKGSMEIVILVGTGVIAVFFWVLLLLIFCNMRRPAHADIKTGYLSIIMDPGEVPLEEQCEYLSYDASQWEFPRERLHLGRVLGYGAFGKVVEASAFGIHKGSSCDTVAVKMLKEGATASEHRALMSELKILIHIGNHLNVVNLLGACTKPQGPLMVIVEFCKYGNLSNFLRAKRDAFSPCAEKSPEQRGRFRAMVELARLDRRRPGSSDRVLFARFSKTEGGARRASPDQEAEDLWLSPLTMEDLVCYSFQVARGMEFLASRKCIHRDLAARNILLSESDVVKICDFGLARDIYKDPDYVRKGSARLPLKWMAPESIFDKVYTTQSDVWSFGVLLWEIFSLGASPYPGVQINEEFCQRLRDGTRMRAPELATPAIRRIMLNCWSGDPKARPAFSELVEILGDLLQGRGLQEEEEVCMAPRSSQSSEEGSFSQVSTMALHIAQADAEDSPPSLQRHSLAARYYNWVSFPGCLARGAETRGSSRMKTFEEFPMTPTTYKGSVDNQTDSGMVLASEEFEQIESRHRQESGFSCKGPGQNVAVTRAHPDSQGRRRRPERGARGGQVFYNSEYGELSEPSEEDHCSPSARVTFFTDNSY

[6] = target: RAC-gamma serine/threonine-protein kinase (Homo sapiens) (UniProt Q9Y243); conditions: Compound concentration 1000.0 nM
Chain of RAC-gamma serine/threonine-protein kinase (Homo sapiens) (Q9Y243 whole entry): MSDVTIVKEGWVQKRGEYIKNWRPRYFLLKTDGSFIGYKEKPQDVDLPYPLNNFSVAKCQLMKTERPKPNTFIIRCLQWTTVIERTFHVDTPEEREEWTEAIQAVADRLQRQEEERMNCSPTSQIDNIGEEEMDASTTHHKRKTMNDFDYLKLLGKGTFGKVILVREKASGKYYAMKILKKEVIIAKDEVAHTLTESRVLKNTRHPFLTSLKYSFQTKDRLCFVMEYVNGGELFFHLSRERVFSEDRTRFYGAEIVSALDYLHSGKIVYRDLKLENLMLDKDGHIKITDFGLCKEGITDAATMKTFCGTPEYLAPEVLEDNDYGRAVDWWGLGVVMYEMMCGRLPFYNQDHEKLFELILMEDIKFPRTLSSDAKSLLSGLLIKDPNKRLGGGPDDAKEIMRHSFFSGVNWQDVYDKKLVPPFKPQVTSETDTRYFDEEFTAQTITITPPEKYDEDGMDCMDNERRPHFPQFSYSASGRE

[7] = target: T1, Ephrin type-A receptor 3 (Homo sapiens) (UniProt P29320); conditions: Compound concentration 1000.0 nM
T1 sequence (whole entry): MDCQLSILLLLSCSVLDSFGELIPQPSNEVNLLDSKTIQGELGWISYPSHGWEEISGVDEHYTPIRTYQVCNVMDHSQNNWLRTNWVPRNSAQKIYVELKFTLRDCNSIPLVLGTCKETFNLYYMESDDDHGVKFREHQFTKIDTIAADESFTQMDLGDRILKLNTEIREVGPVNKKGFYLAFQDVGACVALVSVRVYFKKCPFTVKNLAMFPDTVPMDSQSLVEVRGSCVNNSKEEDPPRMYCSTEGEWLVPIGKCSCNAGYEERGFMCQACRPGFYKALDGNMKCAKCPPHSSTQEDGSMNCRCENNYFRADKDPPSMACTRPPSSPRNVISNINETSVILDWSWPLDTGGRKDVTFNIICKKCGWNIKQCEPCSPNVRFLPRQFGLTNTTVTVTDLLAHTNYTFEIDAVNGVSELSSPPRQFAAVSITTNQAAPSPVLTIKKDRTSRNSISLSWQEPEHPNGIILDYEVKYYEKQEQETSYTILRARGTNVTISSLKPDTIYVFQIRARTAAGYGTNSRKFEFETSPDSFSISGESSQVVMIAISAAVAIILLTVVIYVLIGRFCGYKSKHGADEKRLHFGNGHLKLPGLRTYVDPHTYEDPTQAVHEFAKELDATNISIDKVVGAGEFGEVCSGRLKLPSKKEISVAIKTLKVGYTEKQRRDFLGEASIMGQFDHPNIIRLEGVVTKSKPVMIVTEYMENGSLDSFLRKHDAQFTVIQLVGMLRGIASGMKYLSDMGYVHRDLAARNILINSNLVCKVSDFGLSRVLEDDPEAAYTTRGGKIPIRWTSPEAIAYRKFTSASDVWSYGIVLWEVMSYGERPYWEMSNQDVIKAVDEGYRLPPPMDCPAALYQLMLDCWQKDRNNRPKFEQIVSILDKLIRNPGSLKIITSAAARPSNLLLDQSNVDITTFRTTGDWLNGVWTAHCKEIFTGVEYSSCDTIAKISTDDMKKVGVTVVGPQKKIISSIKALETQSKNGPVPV

[8] = target: T2, Interleukin-1 receptor-associated kinase 4 (Homo sapiens) (UniProt Q9NWZ3); conditions: Compound concentration 1000.0 nM
T2 sequence (whole entry): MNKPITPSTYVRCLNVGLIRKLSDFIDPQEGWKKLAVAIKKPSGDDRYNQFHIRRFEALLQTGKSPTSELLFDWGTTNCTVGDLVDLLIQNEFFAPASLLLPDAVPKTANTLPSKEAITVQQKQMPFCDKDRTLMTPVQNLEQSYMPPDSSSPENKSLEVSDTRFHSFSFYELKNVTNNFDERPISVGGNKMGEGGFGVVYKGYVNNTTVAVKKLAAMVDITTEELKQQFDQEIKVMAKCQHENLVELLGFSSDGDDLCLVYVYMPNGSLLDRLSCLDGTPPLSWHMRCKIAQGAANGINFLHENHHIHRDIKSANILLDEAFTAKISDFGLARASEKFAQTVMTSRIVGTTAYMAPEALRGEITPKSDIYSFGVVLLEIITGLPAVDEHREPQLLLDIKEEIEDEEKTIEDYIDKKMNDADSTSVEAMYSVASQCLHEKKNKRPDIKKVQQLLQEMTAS

[9] = target: Cyclin-dependent kinase 13 (Homo sapiens) (UniProt Q14004); conditions: Compound concentration 1000.0 nM
[10] = target: T3, Serine/threonine-protein kinase TAO1 (Homo sapiens) (UniProt Q7L7X3); conditions: Compound concentration 1000.0 nM
T3 sequence (whole entry): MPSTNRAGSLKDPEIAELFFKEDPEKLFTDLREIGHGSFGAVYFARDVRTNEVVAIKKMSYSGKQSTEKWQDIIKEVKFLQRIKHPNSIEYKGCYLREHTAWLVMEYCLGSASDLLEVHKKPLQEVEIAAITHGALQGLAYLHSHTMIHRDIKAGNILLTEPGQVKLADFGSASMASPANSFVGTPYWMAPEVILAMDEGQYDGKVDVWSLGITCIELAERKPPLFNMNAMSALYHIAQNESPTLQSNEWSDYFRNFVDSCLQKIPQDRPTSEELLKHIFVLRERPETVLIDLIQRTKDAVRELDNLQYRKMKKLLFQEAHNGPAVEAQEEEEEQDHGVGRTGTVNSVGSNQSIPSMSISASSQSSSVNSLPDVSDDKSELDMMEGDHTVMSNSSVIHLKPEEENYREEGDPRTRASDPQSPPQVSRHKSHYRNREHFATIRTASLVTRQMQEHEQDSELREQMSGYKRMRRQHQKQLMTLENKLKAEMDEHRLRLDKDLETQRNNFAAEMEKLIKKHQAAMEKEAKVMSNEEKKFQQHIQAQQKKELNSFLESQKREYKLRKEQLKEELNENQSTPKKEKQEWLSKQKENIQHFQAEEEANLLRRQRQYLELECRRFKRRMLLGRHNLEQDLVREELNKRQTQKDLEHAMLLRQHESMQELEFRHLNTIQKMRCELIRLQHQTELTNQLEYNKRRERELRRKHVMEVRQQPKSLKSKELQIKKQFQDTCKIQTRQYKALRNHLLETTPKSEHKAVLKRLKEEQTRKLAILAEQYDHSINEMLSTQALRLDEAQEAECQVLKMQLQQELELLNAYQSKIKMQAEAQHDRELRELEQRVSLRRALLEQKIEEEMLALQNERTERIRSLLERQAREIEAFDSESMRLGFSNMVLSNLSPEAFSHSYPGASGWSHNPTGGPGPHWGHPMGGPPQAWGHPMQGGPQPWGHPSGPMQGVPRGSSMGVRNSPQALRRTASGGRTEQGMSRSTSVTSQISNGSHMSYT

[11] = target: Mitogen-activated protein kinase kinase kinase kinase 5 (Homo sapiens) (UniProt Q9Y4K4); conditions: Compound concentration 1000.0 nM
Chain of Mitogen-activated protein kinase kinase kinase kinase 5 (Homo sapiens) (Q9Y4K4 whole entry, looked up): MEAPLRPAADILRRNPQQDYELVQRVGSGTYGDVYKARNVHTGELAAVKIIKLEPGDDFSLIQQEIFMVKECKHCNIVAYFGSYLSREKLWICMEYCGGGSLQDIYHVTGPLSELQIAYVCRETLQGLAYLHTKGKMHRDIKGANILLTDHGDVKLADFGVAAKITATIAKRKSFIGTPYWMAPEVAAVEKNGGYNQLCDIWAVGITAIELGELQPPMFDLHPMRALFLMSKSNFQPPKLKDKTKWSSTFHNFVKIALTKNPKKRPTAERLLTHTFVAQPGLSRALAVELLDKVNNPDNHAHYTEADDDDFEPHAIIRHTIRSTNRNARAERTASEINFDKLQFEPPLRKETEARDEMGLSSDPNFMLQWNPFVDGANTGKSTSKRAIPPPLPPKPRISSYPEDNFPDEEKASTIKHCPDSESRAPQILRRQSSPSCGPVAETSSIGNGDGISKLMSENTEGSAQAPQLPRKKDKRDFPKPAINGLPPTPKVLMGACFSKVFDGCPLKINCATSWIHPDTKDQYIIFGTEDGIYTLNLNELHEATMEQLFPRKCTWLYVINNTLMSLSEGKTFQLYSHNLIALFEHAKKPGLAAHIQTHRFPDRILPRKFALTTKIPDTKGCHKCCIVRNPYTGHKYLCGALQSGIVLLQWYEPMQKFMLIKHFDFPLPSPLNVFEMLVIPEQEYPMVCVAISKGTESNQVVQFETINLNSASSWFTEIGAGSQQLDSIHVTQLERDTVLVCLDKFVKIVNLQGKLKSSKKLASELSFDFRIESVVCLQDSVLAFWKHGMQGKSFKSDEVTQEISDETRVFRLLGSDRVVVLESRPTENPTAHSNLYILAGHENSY

[12] = target: Insulin receptor (Homo sapiens) (UniProt P06213); conditions: Compound concentration 1000.0 nM
Chain of Insulin receptor (Homo sapiens) (P06213 28-758 limits assumed): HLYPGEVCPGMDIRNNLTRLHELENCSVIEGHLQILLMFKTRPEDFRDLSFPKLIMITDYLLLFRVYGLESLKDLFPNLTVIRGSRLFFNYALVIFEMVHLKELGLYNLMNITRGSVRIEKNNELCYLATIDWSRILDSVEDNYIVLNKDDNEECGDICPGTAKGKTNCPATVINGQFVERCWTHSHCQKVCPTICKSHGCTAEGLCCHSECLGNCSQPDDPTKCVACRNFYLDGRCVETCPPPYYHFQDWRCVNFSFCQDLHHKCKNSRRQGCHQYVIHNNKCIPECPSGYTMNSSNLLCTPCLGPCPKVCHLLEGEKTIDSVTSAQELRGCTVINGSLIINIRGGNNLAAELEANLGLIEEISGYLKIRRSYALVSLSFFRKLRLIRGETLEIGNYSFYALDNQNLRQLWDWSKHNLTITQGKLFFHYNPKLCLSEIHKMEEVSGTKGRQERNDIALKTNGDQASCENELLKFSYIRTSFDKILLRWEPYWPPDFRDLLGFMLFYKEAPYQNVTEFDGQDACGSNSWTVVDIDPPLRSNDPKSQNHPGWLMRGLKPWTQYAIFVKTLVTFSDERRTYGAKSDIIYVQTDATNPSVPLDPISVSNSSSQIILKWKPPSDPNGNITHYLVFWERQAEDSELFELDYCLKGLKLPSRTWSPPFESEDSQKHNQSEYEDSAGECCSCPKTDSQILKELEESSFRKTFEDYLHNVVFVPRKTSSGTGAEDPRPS
Chain of Insulin receptor (Homo sapiens) (P06213 763-1382 limits assumed): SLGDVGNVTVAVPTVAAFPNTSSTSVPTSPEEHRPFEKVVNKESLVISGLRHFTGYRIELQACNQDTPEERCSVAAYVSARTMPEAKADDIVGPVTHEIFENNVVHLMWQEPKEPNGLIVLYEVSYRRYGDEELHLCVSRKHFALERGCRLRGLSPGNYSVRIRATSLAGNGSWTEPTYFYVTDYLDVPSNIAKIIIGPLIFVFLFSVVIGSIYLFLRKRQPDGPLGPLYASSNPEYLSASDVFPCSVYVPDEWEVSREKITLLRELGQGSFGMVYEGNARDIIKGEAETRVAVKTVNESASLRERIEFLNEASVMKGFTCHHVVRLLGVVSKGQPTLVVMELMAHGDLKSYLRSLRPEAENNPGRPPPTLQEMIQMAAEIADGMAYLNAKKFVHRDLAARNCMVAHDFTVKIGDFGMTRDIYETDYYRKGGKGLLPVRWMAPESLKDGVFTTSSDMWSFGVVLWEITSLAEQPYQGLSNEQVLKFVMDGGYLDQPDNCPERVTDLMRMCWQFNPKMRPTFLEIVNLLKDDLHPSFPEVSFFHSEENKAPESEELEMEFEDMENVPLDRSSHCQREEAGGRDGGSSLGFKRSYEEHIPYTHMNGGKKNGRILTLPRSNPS

Chain of Mitogen-activated protein kinase kinase kinase 13 (Homo sapiens) (O43283 whole entry): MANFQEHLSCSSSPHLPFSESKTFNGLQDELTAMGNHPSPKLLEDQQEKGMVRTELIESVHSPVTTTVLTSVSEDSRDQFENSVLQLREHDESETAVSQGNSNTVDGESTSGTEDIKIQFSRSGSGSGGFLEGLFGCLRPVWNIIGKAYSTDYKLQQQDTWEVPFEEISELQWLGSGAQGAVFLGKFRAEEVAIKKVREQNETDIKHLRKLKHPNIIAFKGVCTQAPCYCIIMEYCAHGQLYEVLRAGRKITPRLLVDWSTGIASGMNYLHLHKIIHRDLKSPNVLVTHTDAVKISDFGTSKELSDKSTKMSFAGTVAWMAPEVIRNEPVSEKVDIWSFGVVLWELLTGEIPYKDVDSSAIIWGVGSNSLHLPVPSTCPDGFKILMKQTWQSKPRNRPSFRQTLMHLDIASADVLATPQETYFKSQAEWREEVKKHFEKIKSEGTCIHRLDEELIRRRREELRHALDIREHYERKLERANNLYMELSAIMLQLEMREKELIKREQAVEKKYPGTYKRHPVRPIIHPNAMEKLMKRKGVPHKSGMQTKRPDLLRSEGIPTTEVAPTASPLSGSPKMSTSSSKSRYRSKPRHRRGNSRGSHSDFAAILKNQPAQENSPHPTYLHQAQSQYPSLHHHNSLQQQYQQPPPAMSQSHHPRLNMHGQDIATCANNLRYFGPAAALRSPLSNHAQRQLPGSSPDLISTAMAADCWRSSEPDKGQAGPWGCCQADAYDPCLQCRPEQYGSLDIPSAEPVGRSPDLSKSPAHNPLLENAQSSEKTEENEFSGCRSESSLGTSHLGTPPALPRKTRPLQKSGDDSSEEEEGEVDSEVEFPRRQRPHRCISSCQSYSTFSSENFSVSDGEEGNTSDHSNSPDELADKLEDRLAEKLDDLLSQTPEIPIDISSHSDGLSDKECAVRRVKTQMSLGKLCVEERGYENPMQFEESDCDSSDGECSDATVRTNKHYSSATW

SMILES | inhibition [1] [%] | residual activity [2] [%] | residual activity [3] [%] | residual activity [4] [%] | residual activity [5] [%] | residual activity [6] [%] | residual activity [7] [%] | residual activity [8] [%] | residual activity [9] [%] | residual activity [10] [%] | residual activity [11] [%] | residual activity [12] [%]
CN1CCN(c2cnc3c(C4CCN(C(=O)c5ccc(OC(F)(F)F)cc5N)CC4)ncnc3c2)CC1 [BAY-885] | -1.34 | 100 | 99 | 100 | 100 | 93 | 100 | 90 | 62 | 100 | 99 | 88
Cc1nc(C2CCN(C(=O)c3ccc(OC(F)(F)F)cc3N)CC2)c2ncc(N3CCN(C)CC3)cc2n1 [BAY-693] | -5.28 | 100 | 100 | 49 | 75 | 95 | 92 | 90 | 88 | 100 | 100 | 93
